The text below walks through data of BindingDB's records for patent WO2022098806 (MERCK SHARP & DOHME LLC, 2022).

Where “and” joins values, the source holds several entries; their conditions need not be identical. Equal values may be shown once.

For orientation: IC50 means the concentration needed to halve the response being measured.

Chain of Mitogen-activated protein kinase kinase kinase kinase 1 (Q92918 whole entry): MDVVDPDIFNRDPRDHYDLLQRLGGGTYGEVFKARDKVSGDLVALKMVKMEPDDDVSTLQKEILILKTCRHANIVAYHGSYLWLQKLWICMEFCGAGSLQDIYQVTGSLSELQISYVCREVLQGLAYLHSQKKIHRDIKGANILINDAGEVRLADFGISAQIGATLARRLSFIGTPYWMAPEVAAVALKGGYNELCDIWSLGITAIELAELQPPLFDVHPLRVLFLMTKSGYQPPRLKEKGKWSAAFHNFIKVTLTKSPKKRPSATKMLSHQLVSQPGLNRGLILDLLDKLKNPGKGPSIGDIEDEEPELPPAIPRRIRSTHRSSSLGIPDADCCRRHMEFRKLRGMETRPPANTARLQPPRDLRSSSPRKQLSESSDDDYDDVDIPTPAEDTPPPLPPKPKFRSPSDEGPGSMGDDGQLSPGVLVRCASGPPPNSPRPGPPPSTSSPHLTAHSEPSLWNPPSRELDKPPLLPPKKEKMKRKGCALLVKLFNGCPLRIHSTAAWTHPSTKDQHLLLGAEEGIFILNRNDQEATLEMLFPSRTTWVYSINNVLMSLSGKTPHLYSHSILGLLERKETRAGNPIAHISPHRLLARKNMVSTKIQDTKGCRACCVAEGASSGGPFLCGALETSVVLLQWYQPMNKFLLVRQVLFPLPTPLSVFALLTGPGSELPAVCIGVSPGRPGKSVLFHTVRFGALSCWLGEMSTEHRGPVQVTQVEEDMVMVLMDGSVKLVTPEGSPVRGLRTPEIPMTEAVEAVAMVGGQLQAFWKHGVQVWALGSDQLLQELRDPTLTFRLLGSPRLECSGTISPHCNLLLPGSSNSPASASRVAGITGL

The experiment concerns the target Mitogen-activated protein kinase kinase kinase kinase 1 (Homo sapiens, UniProt Q92918). The experiment is described as follows: HPK1-SLP76 TR-FRET ASSAY. For orientation: Time-resolved FRET reads energy transfer from a long-lived donor to a nearby acceptor.
In the case of `COc1cc2c(cc1Nc1ncc3ccc(NC4CCN(C)C4=O)cc3n1)CN(C)CC2` (configuration not stated) [WO2022098806, Compound 3-49], the half-inhibitory concentration (IC50) was 97 nM and 98 nM.

`COc1cc2c(cc1Nc1ncc3ccc(N4CC(O)(C(F)(F)F)C4)cc3n1)CN(C)CC2` [WO2022098806, Compound 3-54]: the IC50 is 189 nM.

`COc1cc2c(cc1Nc1ncc3ccc(NC[C@@H]4CC(=O)N(C)C4)cc3n1)CN(C)CC2` [WO2022098806, Compound 3-59] gave a half-inhibitory concentration (IC50) of 365 nM.

Turning to `COc1cc2c(cc1Nc1ncc3ccc(N4CC5CCS(=O)(=O)C5C4)cc3n1)CN(C)CC2` (configuration not stated) [WO2022098806, Compound 3-60], the IC50 is 807 nM.

For the compound `COc1cc2c(cc1Nc1ncc3ccc(NCC4(C)CCC4)cc3n1)CN(C)CC2` [WO2022098806, Compound 3-62], 111 nM corresponded to half-maximal inhibition (IC50).

Compound `COc1cc2c(cc1Nc1ncc3ccc(NCC4(C)CCOC4)cc3n1)CN(C)CC2` (configuration not stated) [WO2022098806, Compound 3-75] gave an IC50 of 90 nM.

With `COc1cc(S(C)(=O)=O)ccc1Nc1ncc2c(N)cc(N3C(=O)OC[C@H]3C)cc2n1` [WO2022098806, Compound 3-76], the 50% inhibitory concentration (IC50) was 0.1 nM.

For `CNC(=O)c1ccc(Nc2ncc3c(N)cc(N4C(=O)OC[C@@H]4C)cc3n2)c(OC)c1` [WO2022098806, Compound 3-79], the midpoint of inhibition, the IC50, lay at 0.25 nM.

Turning to `COc1cc2c(cc1Nc1ncc3c(N)cc(Nc4cc(CO)ccn4)cc3n1)CN(C)CC2` [WO2022098806, Compound 3-80], the IC50 is 2.81 nM.

For the compound `COc1cc2c(cc1Nc1ncc3ccc(OCc4ccc(N5CCNCC5)nc4)cc3n1)CN(C)CC2` [WO2022098806, Compound 4-1], the half-inhibitory concentration (IC50) was 15 nM.

`COc1cc2c(cc1Nc1ncc3ccc(Oc4ccc(C(=O)N5CCN(C(C)=O)CC5)cc4)cc3n1)CN(C)CC2` [WO2022098806, Compound 4-7] displayed an IC50 of 224 nM.

The compound `COc1cc2c(cc1Nc1ncc3ccc(Oc4ccc5c(c4)CNCC5)cc3n1)CN(C)CC2` [WO2022098806, Compound 4-9] showed a half-maximal inhibitory concentration (IC50) of 2.19 nM.
